Source: publication PMC9386018, “A lymphatic-absorbed multi-targeted kinase inhibitor for myelofibrosis therapy” (Nature Communications, 2022)
“And” between values parts separate entries of the source, which are not always exact repeats. Identical values can stand only once.

Columns and labels:
[1] = target: T1, Target kinase isoforms (PI3K, mTOR, RAF, MEK) (Homo sapiens, UniProt O00329); test: Target kinase isoforms 10-point IC50 determination (Supplementary Fig. 7); type: biochemical; conditions: PI3K delta
T1 sequence (O00329 1-1044): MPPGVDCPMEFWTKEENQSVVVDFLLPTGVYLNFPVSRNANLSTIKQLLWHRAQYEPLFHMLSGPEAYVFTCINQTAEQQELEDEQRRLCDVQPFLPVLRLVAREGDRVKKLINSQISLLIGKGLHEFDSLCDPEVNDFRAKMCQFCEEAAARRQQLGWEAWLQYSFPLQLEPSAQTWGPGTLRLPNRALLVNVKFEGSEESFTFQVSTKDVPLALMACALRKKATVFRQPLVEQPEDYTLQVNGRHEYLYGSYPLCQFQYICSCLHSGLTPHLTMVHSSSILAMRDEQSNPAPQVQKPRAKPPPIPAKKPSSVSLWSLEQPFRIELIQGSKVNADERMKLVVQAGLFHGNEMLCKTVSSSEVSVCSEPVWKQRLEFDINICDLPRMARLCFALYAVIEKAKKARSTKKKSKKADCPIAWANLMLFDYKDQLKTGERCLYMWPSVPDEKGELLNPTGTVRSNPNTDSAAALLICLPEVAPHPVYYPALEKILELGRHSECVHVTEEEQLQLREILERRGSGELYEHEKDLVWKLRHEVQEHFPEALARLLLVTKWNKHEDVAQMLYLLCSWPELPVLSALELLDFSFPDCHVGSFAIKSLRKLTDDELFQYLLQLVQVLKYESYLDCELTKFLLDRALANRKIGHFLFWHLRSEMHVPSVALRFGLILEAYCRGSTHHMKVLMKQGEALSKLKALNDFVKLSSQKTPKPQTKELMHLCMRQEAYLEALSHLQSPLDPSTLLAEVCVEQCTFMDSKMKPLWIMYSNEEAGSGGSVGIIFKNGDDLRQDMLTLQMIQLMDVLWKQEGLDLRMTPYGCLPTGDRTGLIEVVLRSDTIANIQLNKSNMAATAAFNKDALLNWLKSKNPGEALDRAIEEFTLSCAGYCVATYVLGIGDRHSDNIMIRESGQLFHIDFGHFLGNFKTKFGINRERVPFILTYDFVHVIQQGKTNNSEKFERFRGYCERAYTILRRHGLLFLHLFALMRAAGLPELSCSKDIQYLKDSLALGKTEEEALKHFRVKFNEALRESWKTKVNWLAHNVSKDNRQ
Source text: (§1) The average percent kinase inhibition from replicate data was ranked low to high, converted to a compatible identifier format, then input into Coral Human Kinome Visualization software for presentation analysis. […] Scaling of evolutionary distance for PI kinases is only relative and is based on literature analysis[62],[63]. Average percent kinome inhibition values from replicate data are supplied in Source Data file. […] Corrected data was normalized to vehicle treated control values, and dose response percent kinase activity was analyzed by non-linear regression for determination of IC50 values.

[2] = target: Target kinase isoforms (PI3K, mTOR, RAF, MEK) (Homo sapiens, UniProt P42345); test: as above; type: biochemical; conditions: mTOR
Source text: as §1

SET-2 cells = test: SET-2 proliferation assay (CellTiter-Fluor); type: cell-based, human; conditions: 72 h
Procedure: Viable cells were counted by CellTiter-Fluor Assay (Promega) according to manufacturer’s protocol, and all fluorescence values were corrected by a no-cell control. […] Caspase activity was measured by Caspase-Glo 3/7 assay (Promega) according to the manufacturer’s protocol, and all luminescence values were corrected by a no-cell control. Dose response proliferation and Caspase activation data was normalized to vehicle treated control cells and analyzed by non-linear regression for determination of IC50 values. Data was generated from n = 3 independent experiments performed in replicate.

[3] = Pharmacokinetic analysis of plasma after intravenous and oral dosing; conditions: Supplementary Figure 6a, individual replicates
[4] = concentration 4.57 nM, 0.00457 µM

## O=C(NOCCOCCOCCOCCC(=O)N1CCN(c2cnc3ccc(-c4cnc(Cl)c(NS(=O)(=O)c5ccc(F)cc5)c4)cc3n2)CC1)c1ccc(F)c(F)c1Nc1ccc(I)cc1F [LP-182, N-(2-(2-(2-(3-(4-(7-(6-chloro-5-((4-fluorophenyl)sulfonamido)pyridin-3-yl)quinoxalin-2-yl)piperazin-1-yl)-3-oxopropoxy)ethoxy)ethoxy)ethoxy)-3,4-difluoro-2-((2-fluoro-4-iodophenyl)amino)benzamide]
[1]; concentration 0.0187 nM, 18.7 pM
  Kinase Activity (%) PI3K delta: 95% and 92% and 102% and 111% and 107%
[1]; concentration 0.0562 nM, 56.2 pM
  Kinase Activity (%) PI3K delta: 105% and 92% and 107% and 113% and 96%
[1]; concentration 0.495 nM
  activity at 0.000495 µM: 83%
[1]; concentration 1.52 nM
  activity at 0.00152 µM: 71%
[1]; [4]
  Kinase Activity (%) PI3K delta: 44%
[1]; concentration 1110 nM, 1.11 µM
  Kinase Activity (%) PI3K delta: 6% and 2% and 7% and 4%
[1]; concentration 3330 nM
  activity at 3.33 µM: 5%
[1]; concentration 3330 nM, 3.33 µM
  Kinase Activity (%) PI3K delta: 6%
[1]; concentration 10000 nM, 10 µM
  Kinase Activity (%) PI3K delta: 6% and 8% and 0% and 10% and 7%
[2]; concentration 0.495 nM
  activity at 0.000495 µM: 95%
[2]; concentration 0.495 nM, 0.000495 µM
  Kinase Activity (%) mTOR: 99% and 98% and 101% and 94% and 96%
[2]; concentration 1.52 nM
  activity at 0.00152 µM: 97%
[2]; concentration 1.52 nM, 0.00152 µM
  Kinase Activity (%) mTOR: 99% and 100% and 94%
[2]; concentration 4.57 nM
  activity at 0.00457 µM: 91%
[2]; [4]
  Kinase Activity (%) mTOR: 92% and 94% and 87% and 88%
[2]; concentration 41.2 nM
  activity at 0.0412 µM: 52%
[2]; concentration 41.2 nM, 0.0412 µM
  Kinase Activity (%) mTOR: 63% and 57% and 47%
[2]; concentration 123 nM
  activity at 0.123 µM: 29%
[2]; concentration 123 nM, 0.123 µM
  Kinase Activity (%) mTOR: 30% and 32% and 31%
[2]; concentration 370 nM
  activity at […]: 13%
[2]; concentration 1110 nM, 1.11 µM
  Kinase Activity (%) mTOR: 4% and 3% and 5% and 1% and 2%
[2]; concentration 3330 nM, 3.33 µM
  Kinase Activity (%) mTOR: 0% and -1% and -2%
[2]; concentration 10000 nM, 10 µM
  Kinase Activity (%) mTOR: 2% and -1% and 1%
SET-2 cells; 0.15625 µM, replicates (Fig. 2d)
  Growth (%): 82.3145% and 74.8007% and 92.2424% and 95.23%
SET-2 cells; 0.3125 µM, replicates (Fig. 2d)
  Growth (%): 82.5275% and 93.6976% and 99.8925% and 94.4152% and 100.311% and 101.419%
SET-2 cells; 0.625 µM, replicates (Fig. 2d)
  Growth (%): 75.7591% and 84.1959% and 99.0777% and 114.242% and 99.4809% and 107.316%
SET-2 cells; LP-182 0.625 µM, replicates
  Growth (%): 94.49% and 102.748% and 105.532% and 109.611% and 111.9% and 115.3% and 97.84% and 53.1792% and 80% and 77.2254% and 41.1561% and 108.317%
SET-2 cells; LP-182 5 µM, replicates
  Growth (%): 88.52% and 52.137% and 67.274% and 67.1508% and 90.41% and 85.13% and 85.23% and 51.3295% and 50.867% (2×) and 75.3757% and 52.71%
SET-2 cells; LP-182 10 µM, replicates
  Growth (%): 67.22% and 40.3515% and 41.5713% and 43.4811% and 65.18% and 66.4% and 66.22% and 0% and 7.399% and 24.9711% (2×) and 44.7503%
SET-2 cells; LP-182 20 µM, replicates
  Growth (%): 33.48% and 38.226% and 25.5964% and 32.3363% and 26.13% and 25.92% and 25.14% and 0% (4×) and 25.7197%
SET-2 cells; LP-182 40 µM, replicates
  Growth (%): 13.5% and 29.145% and 27.7897% and 24.9557% and 14.69% and 13.53% and 12.78% and 0% (4×) and 22.7255%
SET-2 cells; Homo sapiens, read-out: IC50, inhibition of cellular proliferation
  IC50: 7.6 ± 0.82 µM
[3]; i.v., Time 0.167 h
  Concentration: 11100 ng/mL and 8270 ng/mL and 5220 ng/mL
[3]; i.v., Time 0.5 h
  Concentration: 807 ng/mL and 646 ng/mL
[3]; i.v., Time 1 h
  Concentration: 451 ng/mL and 857 ng/mL
[3]; i.v., Time 2 h
  Concentration: 275 ng/mL and 179 ng/mL
[3]; i.v., Time 4 h
  Concentration: 141 ng/mL and 75.9 ng/mL
[3]; i.v., Time 7 h
  Concentration: 51.4 ng/mL and 34.3 ng/mL
[3]; i.v., Time 16 h
  Concentration: 30.6 ng/mL and 29.3 ng/mL and 5.58 ng/mL
[3]; i.v., Time 24 h
  Concentration: 7.68 ng/mL and 8.28 ng/mL
[3]; p.o., Time 0.167 h
  Concentration: 731 ng/mL and 1660 ng/mL and 900 ng/mL
